This is an account of results in PubChem BioAssay (NCI).

Structures are written as SMILES. “And” between values parts separate entries of the source, which are not always exact repeats. Identical values can stand only once.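 96-well plates; 48 h exposure; 5 concentrations. Endpoints by linear interpolation between flanking doses. Not reached: highest tested concentration assigned. GI50 is the concentration that inhibits growth by half. TGI: concentration producing complete growth inhibition.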

Some test systems named below: MOLT-4 leukemia; SF-539 CNS; UO-31 renal; HS 578T breast; RPMI-8226 leukemia; K-562 leukemia; HOP-92 NSCLC; OVCAR-5 ovarian; DU-145 prostate; HCT-116 colon.
Holding throughout (test): NCI anticancer screen, dose series, 48 h

For `O=C(NC(=O)c1c(F)cccc1F)Nc1cccc(Oc2ncc(Cl)cn2)c1`, the TGI was greater than 100 µM in the experiment with MOLT-4 leukemia; greater than 100 µM in the experiment with SF-539 CNS; greater than 100 µM in the experiment on UO-31 renal; greater than 92.1 µM with HS 578T breast; greater than 100 µM in the experiment on RPMI-8226 leukemia; greater than 100 µM in the experiment on K-562 leukemia. The TGI was 70.9 µM with HOP-92 NSCLC, greater than 100 µM in the experiment on OVCAR-5 ovarian, greater than 100 µM with DU-145 prostate and greater than 100 µM with HCT-116 colon.

On to `CNC(=O)OCc1nc(SSC(C)(C)C)n(C)c1COC(=O)NC`, for which the TGI in the experiment with MOLT-4 leukemia was 4.16 µM; in the experiment on SF-539 CNS, 10.6 µM; in the experiment on UO-31 renal it was 20.3 µM; with HS 578T breast, 7.9 µM; with RPMI-8226 leukemia, 8.92 µM; in the experiment on K-562 leukemia, 7.06 µM. Moreover, the TGI came to 3.67 µM with HOP-92 NSCLC, 21 µM with OVCAR-5 ovarian, 33.3 µM in the experiment with DU-145 prostate and 3.26 µM in the experiment on HCT-116 colon.

As to `CCN(CC)CCCC(CCl)Nc1ccnc2cc(Cl)ccc12` (stereo unspecified), the TGI in the experiment with MOLT-4 leukemia is 81.1 µM and > 34.3 µM; in the experiment with SF-539 CNS, 24.8 µM and 27.5 µM; in the experiment on UO-31 renal, 37 µM and > 100 µM; with HS 578T breast, 42.5 µM and 44.3 µM; in the experiment on RPMI-8226 leukemia, 34.4 µM; with K-562 leukemia, 15.7 µM. The TGI in the experiment with HOP-92 NSCLC was 36.6 µM and 42.1 µM; in the experiment on OVCAR-5 ovarian, 28.6 µM and > 61.3 µM; in the experiment on DU-145 prostate, greater than 100 µM; in the experiment with HCT-116 colon, 25.2 µM and 30.4 µM. Besides, the GI50 was 10.7 µM and 11.4 µM with SF-539 CNS; 16.6 µM and 21.5 µM in the experiment with UO-31 renal; 17.3 µM and 18.1 µM in the experiment with HS 578T breast; 12200 nM in the experiment on RPMI-8226 leukemia; 3.42 µM and 3.99 µM in the experiment with K-562 leukemia; 11.2 µM and 14.5 µM in the experiment with HOP-92 NSCLC. Further, the GI50 in the experiment with OVCAR-5 ovarian was 11.4 µM and 23.5 µM; in the experiment on DU-145 prostate it was 49.6 µM and 47.1 µM; with HCT-116 colon, 9.81 µM and 6.94 µM.

`Oc1ccc2ccccc2c1N=Nc1cccc2ccccc12`: the TGI with MOLT-4 leukemia is greater than 100 µM; in the experiment with SF-539 CNS, 76.3 µM; with UO-31 renal, greater than 100 µM; in the experiment with HS 578T breast, > 100 µM and 77.7 µM; in the experiment on RPMI-8226 leukemia, greater than 100 µM; in the experiment with K-562 leukemia, greater than 100 µM. In addition, the TGI in the experiment with HOP-92 NSCLC, with OVCAR-5 ovarian, with DU-145 prostate and with HCT-116 colon was greater than 100 µM each time.

On to `CC(=O)OC1OC([C@H]2c3cccc(O)c3C(=O)c3c(O)cc(C)cc32)C(O)C(O)C1O` (stereo partly specified), for which the GI50 in the experiment with MOLT-4 leukemia is 1.03 µM; in the experiment with SF-539 CNS, 0.121 µM; in the experiment on UO-31 renal it was 0.138 µM; with RPMI-8226 leukemia, 77.9 nM; in the experiment on K-562 leukemia it was 0.203 µM; with HOP-92 NSCLC it was 0.0623 µM. Also, the GI50 was less than 0.0296 µM with OVCAR-5 ovarian, 0.281 µM in the experiment with DU-145 prostate and less than 0.01 µM with HCT-116 colon. Moreover, the TGI in the experiment on SF-539 CNS was 7.08 µM; in the experiment on HS 578T breast it was 0.728 µM; with RPMI-8226 leukemia, 0.2 µM; in the experiment on K-562 leukemia it was greater than 33.5 µM; in the experiment with HOP-92 NSCLC, 0.194 µM; with OVCAR-5 ovarian it was 4.71 µM. Besides, the TGI in the experiment with DU-145 prostate amounted to 12.5 µM; in the experiment with HCT-116 colon, 1.18 µM.

With `Cc1ccc(S(=O)(=O)N=Nc2c(O)[nH]c3cc(O)c(C(=O)O)cc23)cc1`, the TGI with MOLT-4 leukemia, with UO-31 renal, with HS 578T breast, with RPMI-8226 leukemia, in the experiment with K-562 leukemia and in the experiment with OVCAR-5 ovarian was greater than 100 µM throughout. Further, the TGI in the experiment with DU-145 prostate and in the experiment with HCT-116 colon was greater than 100 µM in each case.

Take `CNC(=O)OCc1c(COC(=O)NC)c(-c2ccc(-c3ccccc3)cc2)n(C)c1C`: the TGI in the experiment on MOLT-4 leukemia was 8.95 µM; in the experiment with SF-539 CNS it was 8.37 µM; with UO-31 renal, 3.1 µM; with HS 578T breast it was greater than 68.2 µM; in the experiment on HOP-92 NSCLC it was 11.9 µM; in the experiment on OVCAR-5 ovarian it was 8.26 µM. Also, the results for the TGI in the experiment on DU-145 prostate and in the experiment with HCT-116 colon were 9.4 µM and 14.1 µM, respectively.

Regarding `C[C@]12CCc3sc(Nc4ccc(OC(F)(F)F)cc4)nc3C1=CC[C@@H]1[C@@H]2CC[C@]2(C)C(=O)CC[C@@H]12`, the GI50 with MOLT-4 leukemia was 1.53 µM; with SF-539 CNS, 1.05 µM; in the experiment on UO-31 renal it was 2.06 µM; in the experiment with HS 578T breast it was 1.48 µM; with RPMI-8226 leukemia, 1020 nM; in the experiment with K-562 leukemia it was 1.87 µM. The values for the GI50 in the experiment on HOP-92 NSCLC, with OVCAR-5 ovarian and in the experiment with DU-145 prostate were 1.43 µM, 9.06 µM and 4.31 µM, respectively. The TGI in the experiment with MOLT-4 leukemia is 11.9 µM; with SF-539 CNS it was 2.72 µM; in the experiment on UO-31 renal it was 4.73 µM; in the experiment on HS 578T breast it was 5.22 µM; in the experiment with RPMI-8226 leukemia, 3.77 µM; with K-562 leukemia, 6.64 µM. Moreover, the TGI with HOP-92 NSCLC turned out to be 3.44 µM; in the experiment with OVCAR-5 ovarian, 40.3 µM; with DU-145 prostate it was 25.1 µM.

With `Cc1cn(C2CC(OC(=O)c3ccc(Cl)cc3)C(COC(=O)c3ccc(Cl)cc3)O2)c(=O)[nH]c1=O` (stereo unspecified), the TGI in the experiment with MOLT-4 leukemia, in the experiment on UO-31 renal, in the experiment with HS 578T breast, in the experiment with RPMI-8226 leukemia, with K-562 leukemia and with HOP-92 NSCLC was greater than 100 µM throughout. The TGI in the experiment on OVCAR-5 ovarian, in the experiment on DU-145 prostate and in the experiment with HCT-116 colon was greater than 100 µM in each case.

`CCCCCCCCCCCCCCCCCCOC[C@H](COP(=O)(O)O[C@H]1[C@H](O)[C@@H](O)[C@H](O)C[C@H]1O)OC`: the GI50 in the experiment on MOLT-4 leukemia is 27 µM and 12.4 µM; in the experiment with SF-539 CNS, > 100 µM and 16.2 µM; in the experiment with UO-31 renal, greater than 100 µM; with HS 578T breast, > 100 µM and 17.9 µM; with K-562 leukemia, > 100 µM and 18.4 µM; with HOP-92 NSCLC, 29.4 µM and 12.3 µM. Besides, the GI50 in the experiment with DU-145 prostate was > 100 µM and 17.3 µM; in the experiment with HCT-116 colon it was > 100 µM and 15.8 µM. Besides, the TGI in the experiment on MOLT-4 leukemia is > 100 µM and 33 µM; in the experiment on SF-539 CNS, > 100 µM and 31 µM; with UO-31 renal, > 100 µM and 22.1 µM; in the experiment with HS 578T breast, > 100 µM and 34.8 µM; in the experiment with RPMI-8226 leukemia, 79.7 µM and 30.7 µM; in the experiment with K-562 leukemia, > 100 µM and 55.2 µM. Besides, the TGI in the experiment on HOP-92 NSCLC is > 100 µM and 25.3 µM; with DU-145 prostate, > 100 µM and 34.5 µM; in the experiment with HCT-116 colon it was > 100 µM and 30.7 µM.
